Experiment: gradient 5% acetonitrile 3 min, to 50% in 2 min, to 85% in 15 min, held 3 min, 100 µL/min
Details: column: Zorbax Extend-C18 2.1 x 50 mm; eluents: water / acetonitrile, 0.1% formic acid
Method in brief: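 Retention time was recorded from adduct peaks, which were picked computationally and each inspected manually. Pure standards ran in mixtures of ~100 molecules on HPLC coupled to a quadrupole time-of-flight mass spectrometer, in positive and negative ionization mode, through a Zorbax Extend-C18 column (2.1 × 50 mm, 1.8 μm) at 100 μL/min. Eluents were water and acetonitrile, each with 0.1% formic acid.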

Structure (SMILES)	RP-LC retention time [s]
CC(C)c1nncn1C1CCN(S(=O)(=O)c2ccc(C(F)(F)F)cc2)CC1	791
CCOc1ccc(C2c3[nH]c4ccccc4c3CCN2C(=O)C2CCC2)cc1 (configuration not stated)	1210
CCOc1ccc2ncc(S(=O)(=O)c3ccc(OC)cc3)c(N3CCOCC3)c2c1	919
COc1ccccc1/C=C(\C#N)C(=O)O	801
COC(=O)C1=CN(c2ccc(C)c(F)c2)c2ccc(F)cc2S1(=O)=O	920
O=C(NC1(c2nc(-c3cccnc3)no2)CCCCC1)c1cc(C2CC2)[nH]n1	700
CC(C)c1ccc(S(=O)(=O)N2CCc3c(c(-c4nnc(-c5ccc(F)cc5)o4)nn3C)C2)cc1	1100
CNC(=O)C1CCCN(C(=O)Nc2ccc(NC(=O)Nc3ccccc3)cc2)C1 (configuration not stated)	663
CCC(=O)N1CCc2cc(N3CC(C(=O)N4CCN(C)CC4)CC3=O)ccc21 (configuration not stated)	563
COC(=O)c1ccc(Cn2cnc3c(Cl)ncnc32)cc1	790
COc1ccc(CN2C[C@@H]3C(=O)N(CCCN4CCCC4=O)C(=O)[C@@H]3C2)cc1	589
Cc1cccc(C)c1NC(=O)C1CCCN1S(=O)(=O)c1cc2c(cc1Cl)NC(=O)CO2 (configuration not stated)	778
CCOc1cccc2sc(N(Cc3ccccn3)C(=O)c3nn(C)cc3C)nc12	763
CCn1cnc(S(=O)(=O)N2CCCC(C(=O)NCCN3CCCCCC3)C2)c1 (configuration not stated)	583
CC(C)c1nc(-c2ccc(C(=O)NCc3noc(COc4ccccc4)n3)cc2)no1	998
CC(C)(C)c1ccc(-c2nc(NCCCN3CCOCC3)c3ccccc3n2)cc1	595
CCc1ccc(NC(=O)Nc2cnn(-c3ncc(N4CCCC4)cn3)c2)cc1	880
CCN1c2cc(Cl)ccc2C(=O)NC12CCN(C(=O)NCc1ccc(F)cc1)CC2	840
Cc1ccc(C)c(NC(=O)N2CCc3nc(-c4ccccc4)ncc3C2)c1	924

Structure (SMILES)	RP-LC retention time [s]
O=C(COc1ccc(Cl)cc1)Nc1c(-c2ccc(F)cc2)nc2ccccn12	744
O=C(c1cc(-c2ccncc2)n[nH]1)N1CCCC(C(=O)N2CCN(c3ncccn3)CC2)C1 (configuration not stated)	579
CCn1ccc2sc(C)c(C(=O)N3CCCCCC3)c2c1=O	760
COc1ccc(NC(=O)c2c(O)c3cccnc3n(-c3ccccc3)c2=O)cc1	1200
O=c1c2cc(-c3ccc(F)cc3)nn2cnn1Cc1nc(-c2ccccc2Cl)no1	1110
CCc1ccc(Nc2ncccc2S(N)(=O)=O)cc1	891
COc1ccc(OCc2noc(CNC(=O)NCc3ccc(F)cc3)n2)cc1	770
Fc1cccc(-c2nc(-c3ccc4c(c3)ncn4CCN3CCCC3)no2)c1	634
Cc1nnc2c(NC(=O)c3cc(F)ccc3F)cccn12	705
C[C@H]1CN(C(=O)C2CCCC2)C[C@@H]1c1nc(-c2ccccc2)no1	1060
CN1C(=O)c2cccnc2Sc2cc(NC(=O)Cc3cccc(F)c3)ccc21	784
CC(=O)Nc1ccc(Nc2nc3ccccc3nc2NS(=O)(=O)c2cccs2)cc1	794
Cc1ccn2cc(-c3ccc(NC(=O)c4ccc(F)cc4)cc3)nc2n1	648
O=C(COc1ccc(Cl)cc1)N1CCN(c2nc(CN3CCOCC3)cs2)CC1	643
NS(=O)(=O)c1nn2cc(-c3ccccc3)nc2s1	813
CCCC(=O)Nc1cc2c(cc1S(=O)(=O)c1ccc(C)cc1)n(C)c(=O)n2C	824
CCc1cccc(NS(=O)(=O)c2cc3n(c2)CCCN(CC)C3=O)c1	756
CCNC(=O)N1CC(Oc2ccc(-c3nc(C)no3)cc2)C1	688

Reference: the METLIN SMRT retention time set (Domingo-Almenara et al. 2019)
